Laboratory results reported in patent US6710168B1, “Glycopeptide antibiotics, combinatorial libraries of glycopeptide antibiotics and methods of producing same” (The Trustees of the University of Princeton, priority 1999, dated 2004).
Converted amounts (≈) assume the structure as drawn. Read-outs that look alike come from different tables or passages of the source.

How the values were obtained:
Type in all cases: cell-based
[1] = system: Enterococcus faecalis CL5244, VanB; test: MIC susceptibility test; conditions: for MIC: read-out: MIC CL5244
Outline: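 MTT-based broth microdilution in cation-adjusted Mueller-Hinton broth; two-fold 12-step dilutions […], inoculum 10^6 CFU/mL, 37° C for 24 h.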

[2] = system: Enterococcus faecalis (ATCC 29212); test: MIC susceptibility test, microdilution with MTT readout
Outline: (§1)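 Broth microdilution in cation-adjusted Mueller-Hinton broth, 12-step two-fold series from 5 μg/mL to […], mixed 1:1 with 10^6 CFU/mL cell suspension and incubated 24 h at 37 °C. MTT (1 mg/mL solution) is then added for 30 min (S. aureus, MRSA) or 2 h (E. faecalis strains). MIC = lowest concentration inhibiting growth.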

[3] = system: Methicillin resistant Staphylococcus aureus (ATCC 33591); test: as above; conditions: for MIC: ATCC 3359 / ATCC 33591 / MRSA, read-out: MIC MRSA
Outline: as §1

[4] = system: Staphylococcus aureus (ATCC 29213); test: as above
Outline: as §1

[5] = system: Bacillus cereus (ATCC 11778); test: as above; conditions: for MIC: Bacillus cereus, ATCC11778, read-out: MIC BC; for MIC BC: Bacillus ceres ATCC11778
Outline: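 Bacillus cereus ATCC® 11778 susceptibility was measured by broth microdilution in 96-well microplates using Cation Adjusted Mueller-Hinton broth. Samples were diluted two-fold from 5 μg/mL over 12 steps. Each well combined 100 μL of cell suspension (10^6 CFU/mL) with 100 μL of antibiotic solution and was incubated at 37° C. for 24 h. Then 50 μL of MTT (1 mg/mL) was added for 30 min, and MIC (μg/mL) was read as the lowest concentration inhibiting growth.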

[6] = system: Enterococcus faecium CL5137, VanA; test: MIC susceptibility test; conditions: for MIC: read-out: MIC CL5137
[7] = system: gentamicin, streptmycin, vancomycin resistant Enterococcus faecalis (ATCC 51299); test: microbe, parasite or virus in culture; conditions: for MIC: Enterococcus faecalis, ATCC51299, read-out: MIC VREF; for MIC VREF: Enterococcus faecalis ATCC51299, vancomycin resistance
Outline: as §1

[8] = Enterococcus faecalis CL5244, VanB
[9] = Enterococcus faecalis ATCC29212, read-out: MIC EF
[10] = Staphylococcus aureus ATCC3359, Methicillin resistance
[11] = Staphylococcus aureus ATCC29213, read-out: MIC SA
[12] = Enterococcus faecium CL5137, VanA
[13] = Enterococcus faecalis ATCC29212
[14] = Staphylococcus aureus ATCC29213
[15] = Enterococcus faecalis, ATCC29212, read-out: MIC EF
[16] = Staphylococcus aureus, ATCC29213, read-out: MIC SA

Row | SMILES | MIC [1, 8] | MIC [2, 9] | MIC [3, 10] | MIC [4, 11] | MIC [5] | MIC [6, 12] | MIC [7] | MIC CL5244 [1, 8] | MIC EF [2, 13] | MIC MRSA [3, 10] | MIC SA [4, 14] | MIC BC [5] | MIC CL5137 [6, 12] | MIC VREF [7] | MIC ([1]; Enterococcus faecalis) | MIC [2, 15] | MIC ([3]; Staphylococcus aureus) | MIC [4, 16] | MIC ([6]; Enterococcus faecium)
1 | CN[C@@H](CC(C)C)C(=O)N[C@H]1C(=O)N[C@@H](CC(N)=O)C(=O)N[C@H]2C(=O)NC3C(=O)N[C@H](C(=O)N[C@@H](C(=O)O)c4cc(O)cc(O)c4-c4cc3ccc4O)[C@H](O)c3ccc(c(Cl)c3)Oc3cc2cc(c3OC2OC(CSc3nnc(N)s3)C(O)C(O)C2OC2CC(C)(NCc3ccc(-c4ccc(Cl)cc4)cc3)C(O)C(C)O2)Oc2ccc(cc2Cl)[C@H]1O (stereo partly drawn) [LXXXIII, N-4-(4-Chlorophenyl)benzylvancosamine-glucose-C6-2-thio-5-amino-1,3,4-thiadiazole Vancomycin] | 0.2 mg/L (≈ 0.113 µM) | 0.16 mg/L (≈ 0.0906 µM) | 0.48 mg/L (≈ 0.272 µM) | 0.48 mg/L (≈ 0.272 µM) | 0.32 mg/L (≈ 0.181 µM) | 3.2 mg/L (≈ 1.81 µM) | 0.32 mg/L (≈ 0.181 µM) | – | – | – | – | – | – | – | – | – | – | – | –
2 | CNC(CC(C)C)C(=O)NC1C(=O)NC(CC(N)=O)C(=O)NC2C(=O)NC3C(=O)NC(C(=O)NC(C(=O)O)c4cc(O)cc(O)c4-c4cc3ccc4O)C(O)c3ccc(c(Cl)c3)Oc3cc2cc(c3OC2OC(CN)C(O)C(O)C2OC2CC(C)(N)C(O)C(C)O2)Oc2ccc(cc2Cl)C1O (stereo not drawn) [XLVII, Glucose-C6-amine Vancomycin] | – | – | – | – | – | – | – | 25 mg/L (≈ 17.3 µM) | 1.9 mg/L (≈ 1.31 µM) | 0.32 mg/L (≈ 0.221 µM) | 0.63 mg/L (≈ 0.435 µM) | 1.0 mg/L (≈ 0.69 µM) | 50< μg/mL | 1 mg/L (≈ 0.69 µM) | – | – | – | – | –
3 | CCCCCCCCCCNC1(C)CC(OC2C(Oc3c4cc5cc3Oc3ccc(cc3Cl)[C@@H](O)[C@@H](NC(=O)[C@H](CC(C)C)NC)C(=O)N[C@@H](CC(N)=O)C(=O)N[C@H]5C(=O)NC3C(=O)N[C@H](C(=O)N[C@@H](C(=O)O)c5cc(O)cc(O)c5-c5cc3ccc5O)[C@H](O)c3ccc(c(Cl)c3)O4)OC(CSc3nc(-c4ccccc4)c(-c4ccccc4)o3)C(O)C2O)OC(C)C1O (stereo partly drawn) [LXXXII, N-Decylvancosamine-glucose-C6-2-thio-4,5-diphenyloxazole Vancomycin] | 13 mg/L (≈ 7.12 µM) | > 5 mg/L | > 5 mg/L | > 5 mg/L | > 5 mg/L | > 50 mg/L | > 5 mg/L | – | – | – | – | – | – | – | – | – | – | – | –
4 | CN[C@H](CC(C)C)C(=O)N[C@H]1C(=O)N[C@@H](CC(N)=O)C(=O)N[C@H]2C(=O)N[C@H]3C(=O)N[C@H](C(=O)N[C@H](C(=O)O)c4cc(O)cc(O)c4-c4cc3ccc4O)[C@H](O)c3ccc(c(Cl)c3)Oc3cc2cc(c3OC2OC(CO)C(O)C(O)C2OC2CC(C)(N)C(O)C(C)O2)Oc2ccc(cc2Cl)[C@H]1O (stereo partly drawn) [I, vancomycin, reference compound] | – | – | – | – | 1 mg/L (≈ 0.69 µM) | – | > 5 mg/L | – | – | – | – | – | – | – | 25 mg/L (≈ 17.3 µM) | 1.3 mg/L (≈ 0.897 µM) | 1.3 mg/L (≈ 0.897 µM) | 1 mg/L (≈ 0.69 µM) | 1600 mg/L (≈ 1100 µM)
5 | CN[C@@H](CC(C)C)C(=O)N[C@H]1C(=O)N[C@@H](CC(N)=O)C(=O)N[C@H]2C(=O)NC3C(=O)N[C@H](C(=O)N[C@@H](C(=O)O)c4cc(O)cc(O)c4-c4cc3ccc4O)[C@H](O)c3ccc(c(Cl)c3)Oc3cc2cc(c3OC2OC(COS(=O)(=O)c3c(C)cc(C)cc3C)C(O)C(O)C2OC2CC(C)(NCc3ccc(-c4ccc(Cl)cc4)cc3)C(O)C(C)O2)Oc2ccc(cc2Cl)[C@H]1O (stereo partly drawn) [XLII, N-4-(4-Chlorophenyl)benzylvancosamine-glucose-C6-2-mesitylenesulfonated Vancomycin] | 0.8 mg/L (≈ 0.437 µM) | 1 mg/L (≈ 0.546 µM) | > 5 mg/L | > 5 mg/L | 1.9 mg/L (≈ 1.04 µM) | 6.3 mg/L (≈ 3.44 µM) | 1.9 mg/L (≈ 1.04 µM) | – | – | – | – | – | – | – | – | – | – | – | –
6 | CCCCCCCCCCNC1(C)CC(OC2C(Oc3c4cc5cc3Oc3ccc(cc3Cl)C(O)C3NC(=O)C(NC(=O)C5NC(=O)C(CC(N)=O)NC(=O)C(NC(=O)C(CC(C)C)NC)C(O)c5ccc(c(Cl)c5)O4)c4ccc(O)c(c4)-c4c(O)cc(O)cc4C(C(=O)O)NC3=O)OC(CSc3nc(N)n[nH]3)C(O)C2O)OC(C)C1O (stereo not drawn) [LXXII, Vancosamine-N-decyl-glucose-C6-S-3-amino-5-mercapto-1,2,4-triazole Vancomycin] | – | – | – | – | – | – | – | 0.3 mg/L (≈ 0.178 µM) | 0.32 mg/L (≈ 0.19 µM) | 1.9 mg/L (≈ 1.13 µM) | 3.8 mg/L (≈ 2.25 µM) | 2.5 mg/L (≈ 1.48 µM) | 6.3 µg/mL (≈ 3.73 µM) | 0.32 mg/L (≈ 0.19 µM) | – | – | – | – | –
7 | CN[C@H](CC(C)C)C(=O)N[C@H]1C(=O)N[C@@H](CC(N)=O)C(=O)N[C@H]2C(=O)N[C@H]3C(=O)N[C@H](C(=O)N[C@H](C(=O)O)c4cc(O)cc(O)c4-c4cc3ccc4O)[C@H](O)c3ccc(c(Cl)c3)Oc3cc2cc(c3OC2OC(CNC(=O)c3cnc4ccccc4n3)C(O)C(O)C2OC2CC(C)(NCc3ccc(-c4ccc(Cl)cc4)cc3)C(O)C(C)O2)Oc2ccc(cc2Cl)[C@H]1O (stereo partly drawn) [LII, Glucose-C6-N-2-quinoxaloyl-vancosamine-N-4-(4-chlorophenyl)benzyl Vancomycin] | – | – | – | – | 1.9 mg/L (≈ 1.05 µM) | – | 0.16 mg/L (≈ 0.0886 µM) | – | – | – | – | – | – | – | 0.2 mg/L (≈ 0.111 µM) | 0.08 mg/L (≈ 0.0443 µM) | 5 mg/L (≈ 2.77 µM) | 5 mg/L (≈ 2.77 µM) | 3.2 mg/L (≈ 1.77 µM)
8 | CN[C@@H](CC(C)C)C(=O)N[C@H]1C(=O)N[C@@H](CC(N)=O)C(=O)N[C@H]2C(=O)NC3C(=O)N[C@H](C(=O)N[C@@H](C(=O)O)c4cc(O)cc(O)c4-c4cc3ccc4O)[C@H](O)c3ccc(c(Cl)c3)Oc3cc2cc(c3OC2OC(CSc3nccc(N)n3)C(O)C(O)C2OC2CC(C)(N)C(O)C(C)O2)Oc2ccc(cc2Cl)[C@H]1O (stereo partly drawn) [LXI, Glucose-C6-2-thio-4-aminopyrimidine Vancomycin] | 3.2 mg/L (≈ 2.05 µM) | 0.63 mg/L (≈ 0.404 µM) | 1.3 mg/L (≈ 0.834 µM) | 0.63 mg/L (≈ 0.404 µM) | 0.63 mg/L (≈ 0.404 µM) | > 50 mg/L | 0.63 mg/L (≈ 0.404 µM) | – | – | – | – | – | – | – | – | – | – | – | –
9 | CNC(CC(C)C)C(=O)NC1C(=O)NC(CC(N)=O)C(=O)NC2C(=O)NC3C(=O)NC(C(=O)NC(C(=O)O)c4cc(O)cc(O)c4-c4cc3ccc4O)C(O)c3ccc(c(Cl)c3)Oc3cc2cc(c3OC2OC(CSc3nc(N)n[nH]3)C(O)C(O)C2OC2CC(C)(N)C(O)C(C)O2)Oc2ccc(cc2Cl)C1O (stereo not drawn) [LVI, Glucose-C6-3-amino-5-mercapto-1,2,4-triazole Vancomycin] | – | – | – | – | – | – | – | 1.6 mg/L (≈ 1.03 µM) | 0.63 mg/L (≈ 0.407 µM) | 0.63 mg/L (≈ 0.407 µM) | 0.48 mg/L (≈ 0.31 µM) | 1.0 mg/L (≈ 0.646 µM) | 50< μg/mL | 0.63 mg/L (≈ 0.407 µM) | – | – | – | – | –
10 | CN[C@@H](CC(C)C)C(=O)N[C@H]1C(=O)N[C@@H](CC(N)=O)C(=O)N[C@H]2C(=O)NC3C(=O)N[C@H](C(=O)N[C@@H](C(=O)O)c4cc(O)cc(O)c4-c4cc3ccc4O)[C@H](O)c3ccc(c(Cl)c3)Oc3cc2cc(c3OC2OC(CSc3nc(N)cc(O)n3)C(O)C(O)C2OC2CC(C)(N)C(O)C(C)O2)Oc2ccc(cc2Cl)[C@H]1O (stereo partly drawn) [LXIII, Glucose-C6-2-thio-4-amino-6-hydroxypyrimidine Vancomycin] | 6.3 mg/L (≈ 4 µM) | 2.5 mg/L (≈ 1.59 µM) | > 5 mg/L | 5 mg/L (≈ 3.18 µM) | 5 mg/L (≈ 3.18 µM) | > 50 mg/L | > 5 mg/L | – | – | – | – | – | – | – | – | – | – | – | –
11 | CN[C@@H](CC(C)C)C(=O)N[C@H]1C(=O)N[C@@H](CC(N)=O)C(=O)N[C@H]2C(=O)NC3C(=O)N[C@H](C(=O)N[C@@H](C(=O)O)c4cc(O)cc(O)c4-c4cc3ccc4O)[C@H](O)c3ccc(c(Cl)c3)Oc3cc2cc(c3OC2OC(CNN)C(O)C(O)C2OC2CC(C)(N)C(O)C(C)O2)Oc2ccc(cc2Cl)[C@H]1O (stereo partly drawn) [XLIV, Glucose-C6-hydrazine Vancomycin] | 50 mg/L (≈ 34.2 µM) | 1.3 mg/L (≈ 0.888 µM) | 1.3 mg/L (≈ 0.888 µM) | 0.63 mg/L (≈ 0.431 µM) | 1.3 mg/L (≈ 0.888 µM) | > 50 mg/L | 2.5 mg/L (≈ 1.71 µM) | – | – | – | – | – | – | – | – | – | – | – | –
12 | CN[C@@H](CC(C)C)C(=O)N[C@H]1C(=O)N[C@@H](CC(N)=O)C(=O)N[C@H]2C(=O)NC3C(=O)N[C@H](C(=O)N[C@@H](C(=O)O)c4cc(O)cc(O)c4-c4cc3ccc4O)[C@H](O)c3ccc(c(Cl)c3)Oc3cc2cc(c3OC2OC(CSc3nnnn3-c3ccc(O)cc3)C(O)C(O)C2OC2CC(C)(N)C(O)C(C)O2)Oc2ccc(cc2Cl)[C@H]1O (stereo partly drawn) [LXVIII, Glucose-C6-5-thio-1-(4-hydroxyphenyl)-1H-tetrazole Vancomycin] | 13 mg/L (≈ 8 µM) | 2.5 mg/L (≈ 1.54 µM) | 2.5 mg/L (≈ 1.54 µM) | 2.5 mg/L (≈ 1.54 µM) | 1.3 mg/L (≈ 0.8 µM) | > 50 mg/L | > 5 mg/L | – | – | – | – | – | – | – | – | – | – | – | –
